These are literature values, as cited in patent publication US8703739B2, “Intravascular indwelling catheter lock solution containing weak acid and container containing the same” (priority 2008, dated 2014).

Each structure is given as a SMILES string. Like-named read-outs stand apart in the source and are kept apart here.

As to `O=C(O)CC(O)C(=O)O` (stereo not drawn) [malic acid], the “Buffer pKa” value reads like this: (first pKa) 3.23; (second pKa) 4.77.

`O=C1O[C@H]([C@@H](O)CO)C(O)=C1O` [ascorbic acid]: the “Buffer pKa” value (first pKa) was 4.16.
